Source: patent US20260250290A1 (BRISTOL-MYERS SQUIBB COMPANY, priority 2023, published 2026)

biological target: T1, full length SGK1 (Homo sapiens, UniProt O00141); assay: SGK1 inhibition Assay A (Caliper LabChip electrophoretic separation of fluorescent peptide substrate and phosphorylated product); format: biochemical; conditions: Assay A; 20 μM ATP, 40 min incubation; read-out: SGK1 IC50
T1 construct: 125 μM full length SGK1 (Life Technologies Part #PR7358A); purchased Life Technologies PR7358A
T1 sequence (O00141 1-431): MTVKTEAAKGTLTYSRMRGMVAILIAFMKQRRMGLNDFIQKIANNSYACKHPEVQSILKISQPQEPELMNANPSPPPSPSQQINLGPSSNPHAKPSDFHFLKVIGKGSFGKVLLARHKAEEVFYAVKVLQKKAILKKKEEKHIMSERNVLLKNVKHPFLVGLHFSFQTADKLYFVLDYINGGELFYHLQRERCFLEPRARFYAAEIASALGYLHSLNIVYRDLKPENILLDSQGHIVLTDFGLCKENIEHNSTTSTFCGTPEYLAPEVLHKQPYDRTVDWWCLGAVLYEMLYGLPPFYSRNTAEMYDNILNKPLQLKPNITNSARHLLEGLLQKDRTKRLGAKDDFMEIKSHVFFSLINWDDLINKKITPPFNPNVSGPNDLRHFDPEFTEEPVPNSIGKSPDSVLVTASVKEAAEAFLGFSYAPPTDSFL

Compound	IC50 [nM]
CC(=O)N1CC=C(c2cc(N3CCC[C@@H](NC(=O)c4cccnc4)C3)c3c(N)ncnn23)C1 [Example 729, (R)-N-(1-(7-(1-acetyl-2,5-dihydro-1H-pyrrol-3-yl)-4-aminopyrrolo[2,1-f][1,2,4]triazin-5~ yl)piperidin-3-yl)nicotinamide]	111
CC(=O)N1CC=C(c2cc(N3CCC[C@@H](NC(=O)c4ccncc4)C3)c3c(N)ncnn23)C1 [Example 730, (R)-N-(1-(7-(1-acetyl-2,5-dihydro-1H-pyrrol-3-yl)-4-aminopyrrolo[2,1-f][1,2,4]triazin-5-yl)piperidin-3-yl)isonicotinamide]	26
CC(=O)N1CC=C(c2cc(N3CCC[C@@H](NC(=O)c4ccc(Cl)s4)C3)c3c(N)ncnn23)C1 [Example 731, (R)-N-(1-(7-(1-acctyl-2,5-dihydro-1H-pyrrol-3-yl)-4-aminopyrrolo[2,1-f][1,2,4]triazin-5-yl)piperidin-3-yl)-5-chlorothiophene-2-carboxamide]	6
CC(=O)N1CC=C(c2cc(N3CCC[C@@H](NC(=O)c4cc(C)cc(N5CCN(C)CC5)n4)C3)c3c(N)ncnn23)C1 [Example 732, (R)-N-(1-(7-(1-acetyl-2,5-dihydro-1H-pyrrol-3-yl)-4-aminopyrrolo[2,1-f][1,2,4]triazin-5-yl)piperidin-3-yl)-4-methyl-6-(4-methylpiperazin-1-yl)picolinamide]	25
CC(=O)N1CC=C(c2cc(N3CCC[C@@H](NC(=O)c4cccc(OCC5CN(C)C5)n4)C3)c3c(N)ncnn23)C1 [Example 733, (R)-N-(1-(7-(1-acetyl-2,5-dihydro-1H-pyrrol-3-yl)-4-aminopyrrolo[2,1-f][1,2,4]triazin-5-yl)piperidin-3-yl)-6-((1-methylazetidin-3-yl)methoxy)picolinamide]	23
CC(=O)N1CC=C(c2cc(N3CCC[C@@H](NC(=O)c4cccc(OC5CN6CCC5CC6)n4)C3)c3c(N)ncnn23)C1 (stereo partly drawn) [Example 734, N-((R)-1-(7-(1-acetyl-2,5-dihydro-1H-pyrrol-3-yl)-4-aminopyrrolo[2,1-f][1,2,4]triazin-5-yl)piperidin-3-yl)-6-(quinuclidin-3-yloxy)picolinamide]	10
CC(=O)N1CC=C(c2cc(N3CCC[C@@H](NC(=O)c4cccc(N5CCN(C)CC5)c4)C3)c3c(N)ncnn23)C1 [Example 735, (R)-N-(1-(7-(1-acetyl-2,5-dihydro-1H-pyrrol-3-yl)-4-aminopyrrolo[2,1-f][1,2,4]triazin-5-yl)piperidin-3-yl)-3-(4-methylpiperazin-1-yl)benzamide]	21
CC(=O)N1CC=C(c2cc(N3CCC[C@@H](NC(=O)c4cncc(N5CCN(C)CC5)n4)C3)c3c(N)ncnn23)C1 [Example 736]	48
CC(=O)N1CC=C(c2cc(N3CCC[C@@H](NC(=O)c4ccn(C(F)F)n4)C3)c3c(N)ncnn23)C1 [Example 737]	10
CC(=O)N1CC=C(c2cc(N3CCC[C@@H](NC(=O)c4ccn(C)n4)C3)c3c(N)ncnn23)C1 [Example 738, (R)-N-(1-(7-(1-acetyl-2,5-dihydro-1H-pyrrol-3-yl)-4-aminopyrrolo[2,1-f][1,2,4]triazin-5-yl)piperidin-3-yl)-1-methyl-1H-pyrazole-3-carboxamide]	115
CC(=O)N1CC=C(c2cc(N3CCC[C@@H](NC(=O)c4cc(C5CC5)n(C)n4)C3)c3c(N)ncnn23)C1 [Example 739, (R)-N-(1-(7-(1-acetyl-2,5-dihydro-1H-pyrrol-3-yl)-4-aminopyrrolo[2,1-f][1,2,4]triazin-5-yl)piperidin-3-yl)-5-cyclopropyl-1-methyl-1H-pyrazole-3-carboxamide]	98
CC(=O)N1CC=C(c2cc(N3CCC[C@@H](NC(=O)c4ccncn4)C3)c3c(N)ncnn23)C1 [Example 740, (R)-N-(1-(7-(1-acetyl-2,5-dihydro-1H-pyrrol-3-yl)-4-aminopyrrolo[2,1-f][1,2,4]triazin-5-yl)piperidin-3-yl)pyrimidine-4-carboxamide]	241
CC(=O)N1CC=C(c2cc(N3CCC[C@@H](NC(=O)c4ccnc(N5CCN(C)CC5)n4)C3)c3c(N)ncnn23)C1 [Example 741]	3
CCn1ccc(C(=O)N[C@@H]2CCCN(c3cc(C4=CCN(C(C)=O)C4)n4ncnc(N)c34)C2)n1 [Example 742, (R)-N-(1-(7-(1-acetyl-2,5-dihydro-1H-pyrrol-3-yl)-4-aminopyrrolo[2,1-f][1,2,4]triazin-5-yl)piperidin-3-yl)-1-ethyl-1H-pyrazole-3-carboxamide]	135
CC(=O)N1CC=C(c2cc(N3CCC[C@@H](NC(=O)c4ccn(CC(F)F)n4)C3)c3c(N)ncnn23)C1 [Example 743]	51
CC(=O)N1CC=C(c2cc(N3CCC[C@@H](NC(=O)c4nc(N5CCN(C)CC5)ccc4F)C3)c3c(N)ncnn23)C1 [Example 744, (R)-N-(1-(7-(1-acetyl-2,5-dihydro-1H-pyrrol-3-yl)-4-aminopyrrolo[2,1-f][1,2,4]triazin-5-yl)piperidin-3-yl)-3-fluoro-6-(4-methylpiperazin-1-yl)picolinamide]	8
CC(=O)N1CC=C(c2cc(N3CCC[C@@H](NC(=O)c4nc(F)ccc4N4CCN(C)CC4)C3)c3c(N)ncnn23)C1 [Example 745, (R)-N-(1-(7-(1-acetyl-2,5-dihydro-1H-pyrrol-3-yl)-4-aminopyrrolo[2,1-f][1,2,4]triazin-5-yl)piperidin-3-yl)-6-fluoro-3-(4-methylpiperazin-1-yl)picolinamide]	366
CC(=O)N1CC=C(c2cc(N3CCC[C@@H](NC(=O)c4ccc5n(c4=O)CCC5)C3)c3c(N)ncnn23)C1 [Example 746, (R)-N-(1-(7-(1-acetyl-2,5-dihydro-1H-pyrrol-3-yl)-4-aminopyrrolo[2,1-f][1,2,4]triazin-5-yl)piperidin-3-yl)-5-oxo-1,2,3,5-tetrahydroindolizine-6-carboxamide]	784
CC(=O)N1CC=C(c2cc(N3CCC[C@@H](NC(=O)c4cc(C5CC5)[nH]n4)C3)c3c(N)ncnn23)C1 [Example 747]	13
CCOC1=C(C(=O)N[C@@H]2CCCN(c3cc(C4=CCN(C(C)=O)C4)n4ncnc(N)c34)C2)CN(CC(F)(F)C(F)(F)F)C1=O [Example 748, (R)-N-(1-(7-(1-acetyl-2,5-dihydro-1H-pyrrol-3-yl)-4-aminopyrrolo[2,1-f][1,2,4]triazin-5-yl)piperidin-3-yl)~4-ethoxy-5-oxo-1-(2,2,3,3,3-pentafluoropropyl)-2,5-dihydro-1H-pyrrole-3-carboxamide]	318
CC(=O)N1CC=C(c2cc(N3CCC[C@@H](NC(=O)c4cccc(N5CCN(CC(F)F)CC5)n4)C3)c3c(N)ncnn23)C1 [Example 750, (R)-N-(1-(7-(1-acetyl-2,5-dihydro-1H-pyrrol-3-yl)-4-aminopyrrolo[2,1-f][1,2,4]triazin-5-yl)piperidin-3-yl)-6-(4-(2,2-difluoroethyl)piperazin-1-yl)picolinamide]	41
CC(=O)N1CC=C(c2cc(N3CCC[C@@H](NC(=O)c4cccc(OC5CCN(C(C)C)CC5)n4)C3)c3c(N)ncnn23)C1 [Example 751, (R)-N-(1-(7-(1-acetyl-2,5-dihydro-1H-pyrrol-3-yl)-4-aminopyrrolo[2,1-f][1,2,4]triazin-5-yl)piperidin-3-yl)-6-((1-isopropylpiperidin-4-yl)oxy)picolinamide]	37
